Data as given in patent publication US20240398764A1, “METHODS OF TREATING DISEASES ASSOCIATED WITH SENESCENT CELL ACCUMULATION” (University of Florida Research Foundation, Incorporated, priority 2021, published 2024).

Columns and labels:
[1] = molecular target: T1, Bcl-xL (Mus musculus, UniProt Q64373); test: Bcl-xL level in livers of STZ/HFD mice (Western blotting); assay type: in vivo, C57BL6 mice; settings: 5 mg/kg twice a week IP, postnatal day 90, vs vehicle
T1 construct: Western blot of Bcl-xl levels in the livers of STZ/HFD mice treated with 753b or vehicle control; from tissue; host or cells: liver of C57BL6 mice (STZ plus high fat diet)
Protocol: GAPDH was used as a loading control. FIG. 6B depicts the relative expression of p16 and p21 at mRNA levels in the livers of STZ/HFD mice treated with 753b or vehicle control. *p<0.05. FIGS. 6C to 6D show senescence-associated beta-galactosidase (SA-β-gal) stained livers of STZ/HFD mice treated with vehicle control (FIG. 6C) or 753b (FIG. 6D). Scale bar: […].
(§1) Experimental design: C57BL6 mice were injected with Streptozotocin (STZ) at postnatal day 2 to induce diabetes and then fed with HFD from postnatal day 30 till the end of the experiments (FIG. 5). Half of the mice started receiving vehicle and the others receiving 753b (5 mg/kg) treatment on postnatal day 45 twice a week by IP injection till the end of the experiments. A group of the mice were euthanized at postnatal day 90 (or day 45 after the initiation of the treatment) for analysis of senescent cell accumulation and steatosis. Another group of the mice were euthanized at postnatal day 150 (or day 105 after the initiation of the treatment) for analysis of liver fibrosis and cancer.
753b effectively clears senescent cells induced by STZ/HFD in the liver. The liver tissues were collected from mice at postnatal day 90 (p90 or 45 days after treatment) for the analyses. […] Data were means±SD of triplicate experiments.

[2] = Myofibroblast cell activation and liver fibrosis in the STAM model; assay type: in vivo, C57BL6 mice; settings: STZ/HFD mice, 5 mg/kg twice a week IP, postnatal day 150
Protocol: FIG. 9A depicts relative change in aSMA, Procollagen-1, Tgf-β, Ctgf, and Pdgf-β genes in livers of STZ/HFD mice treated with vehicle control or 753b. Data were means±SD of triplicate experiments. *p<0.05. […] Scale bar: […]. […] Actin was used as a loading control. FIG. 9D depicts hydroxyproline (μg/g) levels in the liver of STZ/HFD mice treated with vehicle control or 753b. *p<0.05.
as §1
753b administration inhibits myofibroblast cell activation and liver fibrosis in the STAM model. All the analyses were done in mice at postnatal day 150 (p150 or 105 days after treatment). […] Quantification was performed from 5 livers per group and was expressed as means±SD.

[3] = Hepatic fat accumulation in the STAM model (oil red staining, hepatic triglyceride); assay type: in vivo, C57BL6 mice; settings: STZ/HFD mice; 5 mg/kg twice a week IP; postnatal day 90
Protocol: Scale bar: […]. FIG. 7B depicts percentage of oil red^+ area/field of the images depicted in FIG. 7A. Values represented means±SD. *p<0.05. […] Values represented means±SD. *p<0.05.
as §1
753b administration represses hepatic fat accumulation in the STAM model. The liver tissues were collected from mice at postnatal day 90 (p90 or 45 days after treatment) for the analyses. […] Quantification of oil red stained images was performed from 5 livers per group (FIG. 7B). […] Quantification was performed from 5 livers per group and was expressed as means±SD.

[4] = Tumorigenesis in the STAM model (MRI); assay type: in vivo, C57BL6 mice; settings: STZ/HFD mice; 5 mg/kg twice a week IP; postnatal day 150
Protocol: FIG. 10A depicts images of livers of STZ/HFD mice treated with vehicle control or 753b (top) and MRIs of T1 pre-contrast and T2-weighted images of corresponding livers (bottom). Tumor lesions are indicated by yellow arrows. […] FIG. 10C depicts a Western blot of Gpc3 in livers of STZ/HFD mice treated with vehicle control or 753b. Actin was used as a loading control.
Experimental design: C57BL6 mice were injected with Streptozotocin (STZ) at postnatal day 2 to induce diabetes and then fed with HFD from postnatal day 30 till the end of the experiments (FIG. 5). Half of the mice started receiving vehicle and the others receiving 753b (5 mg/kg) treatment on postnatal day 45 twice a week by IP injection till the end of the experiments. […]
All the analyses were done in mice at postnatal day 150 (p150 or 105 days after treatment). […] Tumor lesions were determined based on hypointense signals in T1 but hyperintense signals in T2-weighted image (FIG. 10A). Tumor number and volume was quantified based on MRI T1 and T2-weighted images. Values were expressed as means±SD from 5 mice per group. Data for each mouse were analyzed based on 5-6 slices of images that covered whole liver lobes (FIG. 10B). […] Quantification analysis was performed for the ratio between liver and body weight in the STZ/HFD treated livers that were exposed to 753b or control compound (FIG. 10D). […]

[5] = system: replicative senescent REC (Rep-SnC REC); test: Viability of Rep-SnC REC; assay type: cell-based; settings: 72 hr incubation; vs ABT263
Protocol: FIGS. 3A to 3B depicts viability of non-SnC human umbilical vein endothelial cells (HUVEC) and IR-induced SnC HUVEC treated with varying concentrations of ABT263 (FIG. 3A) or 753b (FIG. 3B). FIGS. 3C to 3D depict viability of non-SnC renal epithelial cells (REC), IR-induced SnC REC, and replicative senescent REC treated with varying concentrations of ABT263 (FIG. 3C) or 753b (FIG. 3D).
The viability of Non-SnC HUVEC, Non-SnC REC, IR-SnC HUVEC, IR-SnC REC, and Rep-SnC REC was measured 72 hr after they were incubated with increasing concentrations of 753b or ABT263 compared to cells/platelets with vehicle.

T1 sequence (Q64373 whole entry): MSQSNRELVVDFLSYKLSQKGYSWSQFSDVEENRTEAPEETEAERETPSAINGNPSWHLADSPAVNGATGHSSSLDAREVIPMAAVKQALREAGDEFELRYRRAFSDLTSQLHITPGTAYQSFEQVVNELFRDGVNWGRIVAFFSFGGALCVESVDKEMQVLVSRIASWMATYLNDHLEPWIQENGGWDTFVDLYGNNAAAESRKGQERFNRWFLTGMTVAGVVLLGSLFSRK

In the case of `Cc1ncsc1-c1ccc([C@H](C)NC(=O)[C@@H]2C[C@@H](O)CN2C(=O)[C@@H](NC(=O)CCCCCCC(=O)N2CCN(C[C@]3(C)CCC(c4ccc(Cl)cc4)=C(CN4CCN(c5ccc(C(=O)NS(=O)(=O)c6ccc(N[C@H](CCN7CCOCC7)CSc7ccccc7)c(S(=O)(=O)C(F)(F)F)c6)cc5)CC4)C3)CC2)C(C)(C)C)cc1` [Compound 753b], the “Bcl-xL accumulation in the livers” value [1] is reported as “reduced Bcl-xL accumulation”, the “Collagen level in livers (hepatic hydroxyproline assay)” value [2] is reported as “decreased levels of collagen” and the “Liver fibrosis (aSMA immunofluorescent staining and sirius red staining)” value [2] is reported as “prevented liver fibrosis”. The “aSMA and pro-collagen type I protein levels in livers (Western blotting)” value [2] was “low levels of aSMA and pro-collagen type I proteins”, the “Levels of fibrosis-related genes in livers (Q-RT-PCR)” value ([2]; vs controls) was “lower levels of fibrosis-related genes” and the “Hepatic fat accumulation (oil red staining)” value [3] was “inhibited hepatic fat accumulation”. The Hepatic triglyceride level [3] was “decreased levels of hepatic triglyceride”, the “Tumorigenesis in the liver” value [4] was “reduces tumorigenesis” and the “Senolytic potency (viability) against Rep-SnC REC compared with ABT263” value [5] was “more potent senolytic agent”.
